These results are taken from PMC10056611, “Synthesis and Biological Evaluation of 3-Amino-4,4-Dimethyl Lithocholic Acid Derivatives as Novel, Selective, and Cellularly Active Allosteric SHP1 Activators” (Molecules, 2023).

Data set [1] has as its system acute lymphoblastic leukemia (ALL) cell line RS4;11. Nature of the data set: CCK8 cell viability assay, RS4;11. It counts as cell-based. The following applies: Homo sapiens, RS4-11, 72 h, RS4;11 cells. The method, then: (§1) Acute lymphoblastic leukemia (ALL) cell line RS4;11 (2.5 × 10^4 cells per well), acute promyelocytic leukemia (APL) cell line NB4 (1 × 10^4 cells per well), and non-small cell lung cancer (NSCLC) cell line NCI-H1299 (1.5 × 10^3 cells per well) were seeded into 96-well plates. After treatment with different concentrations of drugs, the cells were incubated in quadruple for 72 h. Thereafter, a 10 μL CCK8 solution was added to each well. After a 3 h incubation at 37 °C, the plates were read for absorbance at 450 nm and 650 nm using a SpectraMax Molecular Devices microplate reader. The final data were calibrated by OD450 nm-OD650 nm. The inhibition rates of proliferation were calculated with the following equation:Inhibition ratio = (ODDMSO-ODCompd)/(ODDMSO-ODblank) × 100%.(1)
(§2) The concentrations of the compounds that inhibited cell growth by 50% (IC50) were calculated using GraphPad Prism version 5.0. NVP-2 was used as a positive control.

In another data set the target is T1, SHP2 (Homo sapiens, UniProt Q06124).
T1 sequence (Q06124 1-593): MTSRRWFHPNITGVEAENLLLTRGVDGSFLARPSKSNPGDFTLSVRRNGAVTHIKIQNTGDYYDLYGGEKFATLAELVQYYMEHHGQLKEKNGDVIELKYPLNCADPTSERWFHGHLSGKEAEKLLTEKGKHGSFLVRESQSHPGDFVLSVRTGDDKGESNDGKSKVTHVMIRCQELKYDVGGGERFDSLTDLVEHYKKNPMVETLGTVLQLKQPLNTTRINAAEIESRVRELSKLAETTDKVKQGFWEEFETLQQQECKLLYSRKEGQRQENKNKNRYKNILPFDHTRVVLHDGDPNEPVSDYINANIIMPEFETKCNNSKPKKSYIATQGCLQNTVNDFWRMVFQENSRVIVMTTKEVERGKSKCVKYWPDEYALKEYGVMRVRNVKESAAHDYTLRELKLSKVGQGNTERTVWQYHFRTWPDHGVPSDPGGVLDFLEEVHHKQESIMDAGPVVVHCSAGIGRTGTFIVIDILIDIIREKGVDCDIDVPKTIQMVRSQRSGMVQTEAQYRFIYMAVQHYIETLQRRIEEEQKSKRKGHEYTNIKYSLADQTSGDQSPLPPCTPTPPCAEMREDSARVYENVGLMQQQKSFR
Briefly: SHP2 enzyme assay (DiFMUP fluorogenic substrate), activation. Type of data set: biochemical. The method, then:
(§3) The proteins SHP1 and SHP2, containing a GST-tag, were expressed in E. coli. 6,8-Difluoro-4-methylumbelliferyl phosphate (DiFMUP) was used as the fluorogenic substrate. Fluorescence data were collected by the Envision (PerkinElmer, Waltham, MA, USA) plate reader, using excitation and emission wavelengths of 358 and 455 nm, respectively. A sigmoidal dose-response curve was fitted to the data, and the EC50 values were calculated using GraphPad Prism. In the data processing, the fitting and curves were calculated using nonlinear regression, and the fold value of the compound was calculated using the software GraphPad Prism 8. The folds were obtained according to the equation: Y = Bottom + (Top-Bottom)/(1 + 10^((LogEC50-X) × HillSlope)). The data represent mean values ± standard error of the mean (SEM) of eight-point experiments, each performed in triplicates from three independent experiments.

For data set [2], the system named is acute promyelocytic leukemia (APL) cell line NB4. Briefly: CCK8 cell viability assay, NB4. The following applies: Homo sapiens, NB-4, NB4 cells, 72 h. It counts as cell-based. Here is the method: as §1, §2
Data set [3] has as its system non-small cell lung cancer (NSCLC) cell line NCI-H1299. Briefly: CCK8 cell viability assay, NCI-H1299. Type of data set: cell-based. The settings on record: Homo sapiens, NCI-H1299 cells, 72 h. The method, then: as §1, §2
The target in another data set is SHP1 (Homo sapiens, UniProt P29350). Briefly: SHP1 enzyme assay (DiFMUP fluorogenic substrate), activation. Type of data set: biochemical. The following applies: for EC50 / Maximum Activation Fold: mean ± SEM.
Source text: The SHP1-activating effects of the synthetic compounds were examined by the 6,8-difluoro-4-methylumbelliferyl phosphate (DiFMUP) assay.
as §3

Where only a bound is given, the exact number is not on record here.

SHP1, sequence (P29350 whole entry): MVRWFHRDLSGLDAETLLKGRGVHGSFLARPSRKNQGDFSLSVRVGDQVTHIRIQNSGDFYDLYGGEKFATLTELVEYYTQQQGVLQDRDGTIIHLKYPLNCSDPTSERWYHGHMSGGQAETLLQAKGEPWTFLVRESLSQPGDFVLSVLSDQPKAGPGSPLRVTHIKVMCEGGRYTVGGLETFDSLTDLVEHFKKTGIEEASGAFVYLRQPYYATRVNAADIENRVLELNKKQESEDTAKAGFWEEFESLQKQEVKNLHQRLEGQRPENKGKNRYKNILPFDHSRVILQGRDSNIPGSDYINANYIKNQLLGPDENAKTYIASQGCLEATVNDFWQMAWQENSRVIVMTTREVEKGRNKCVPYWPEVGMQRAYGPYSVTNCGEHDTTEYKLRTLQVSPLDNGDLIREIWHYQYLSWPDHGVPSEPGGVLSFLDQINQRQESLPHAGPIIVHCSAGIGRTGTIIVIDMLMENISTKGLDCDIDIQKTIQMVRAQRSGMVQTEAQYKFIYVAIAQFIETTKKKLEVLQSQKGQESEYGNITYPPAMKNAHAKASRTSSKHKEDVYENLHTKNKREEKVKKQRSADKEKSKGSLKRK

As to `C[C@H](COc1ccc(NC(=O)Nc2ccc(Cl)c(C(F)(F)F)c2)cc1)[C@H]1CCC2C3CC=C4C(C)(C)C(N)CC[C@]4(C)C3CC[C@@]21C` (stereo partly drawn) [Compound 5ba], the melting point is 197.1 to 198.6 °C. This compound also came in with an IC50 in data set [1] of 4 ± 0.22 µM. The EC50 at SHP2 (DiFMUP assay) was > 50 µM. Besides, the “selectivity for SHP1 over SHP2” value on SHP2 (ratio of EC50 values, SHP2 vs SHP1) was “more than 32 fold”. For the same compound, the IC50 in data set [2] came out at 3.74 ± 0.39 µM. Moreover, 5.51 ± 0.23 µM corresponded to half-maximal inhibition in data set [3] (IC50). On SHP1 (DiFMUP assay), the EC50 is 1.54 ± 0.24 µM and the “Maximum Activation Fold” value worked out at 7.63 ± 0.20 fold. In addition, the “increase in potency compared to 5aw” value on SHP1 (SHP1 EC50 ratio vs 5aw) is ~23 times.
For `C[C@H](CCCO)[C@H]1CCC2C3CC=C4C(C)(C)C(NC(=O)Nc5ccc(Cl)c(C(F)(F)F)c5)CC[C@]4(C)C3CC[C@@]21C` (stereo partly drawn) [Compound 5ax, 1-(4-chloro-3-(trifluoromethyl)phenyl)-3-((10R,13R,17R)-17-((R)-5-hydroxypentan-2-yl)-4,4,10,13-tetramethyl-2,3,4,7,8,9,10,11,12,13,14,15,16,17-tetradecahydro-1H-cyclopenta[a]phenanthren-3-yl)urea], the melting point was 221.1 to 223.7 °C. For the same compound, on SHP1 (DiFMUP assay), the “SHP1 activity (in words)” value was “no activity” and the EC50 was > 50 µM.
`C=CCC(O)CC[C@@H](C)[C@H]1CCC2C3CC=C4C(C)(C)C(N)CC[C@]4(C)C3CC[C@@]21C` (stereo partly drawn) [Compound 5ar, (7R)-7-((10R,13R,17R)-3-amino-4,4,10,13-tetramethyl-tetradecahydro-1H-cyclopenta[a]phenanthren-17-yl)oct-1-en-4-ol] showed a melting point of 250.4 to 252.6 °C. Also, at SHP1 (DiFMUP assay), the EC50 was found to be 12.9 ± 0.75 µM and the “Maximum Activation Fold” value was 6.94 ± 0.17 fold.
As to `CCC(O)CC[C@@H](C)[C@H]1CCC2C3CC=C4C(C)(C)C(N)CC[C@]4(C)C3CC[C@@]21C` (stereo partly drawn) [Compound 5ao], the melting point was > 300 °C. In addition, on SHP1 (DiFMUP assay), the EC50 worked out at 15.5 ± 4.38 µM and the “Maximum Activation Fold” value is listed as 6.59 ± 0.48 fold.
